Reference: BigSolDB 2.1

O=C(Nc1c(F)c(F)c(F)c(F)c1F)C(=O)Nc1c(F)c(F)c(F)c(F)c1F
Conditions	solubility (mole fraction)
in 2-butanone, 284.2 K	0.00793
in 2-butanone, 287.1 K	0.00854
in 2-butanone, 289.4 K	0.00897
in 2-butanone, 293.4 K	0.00984
in 2-butanone, 303.3 K	0.0126
in 2-butanone, 314.7 K	0.0168
in 2-butanone, 323.9 K	0.0209
in 2-butanone, 327.2 K	0.023
in 2-butanone, 331.1 K	0.025
in 2-butanone, 333.4 K	0.0271
in 2-butanone, 336.9 K	0.029
in ethyl acetate, 281.1 K	0.00822
in ethyl acetate, 285.6 K	0.00934
in ethyl acetate, 291.9 K	0.0105
in ethyl acetate, 293.5 K	0.0116
in ethyl acetate, 303.7 K	0.0138
in ethyl acetate, 310.9 K	0.017
in ethyl acetate, 321.4 K	0.0206
in ethyl acetate, 325.1 K	0.0229
in ethyl acetate, 326.7 K	0.0251
in ethyl acetate, 332.2 K	0.0274
in ethyl acetate, 334.9 K	0.0295

O=c1[nH]c(=O)n([C@H]2C[C@H](O)[C@@H](CO)O2)cc1I
in water
Conditions	solubility (mole fraction)
302.2 K	0.00013
312.6 K	0.00021
317.8 K	0.00026
321.9 K	0.00039
323 K	0.00027
326.2 K	0.00041
332 K	0.00051
336 K	0.00047
343.1 K	0.00076
348.6 K	0.00089
349.8 K	0.00102

NC(=O)c1c(F)c(F)c(F)c(F)c1F
in water
Conditions	solubility (mole fraction)
291.8 K	0.00018
297.5 K	0.00026
303.3 K	0.00034
310.3 K	0.0006
